Source: US10391070B2, “Compositions and methods for treating neurological diseases or injury” (MUSC FOUNDATION FOR RESEARCH DEVELOPMENT, priority 2012, dated 2019)

What was measured:
zebrafish larvae = assay: Zebrafish larval toxicity (NOEC, lethal dose); format: in vivo; conditions: for Lethal dose / Highest concentration tested for anti-seizure activity: 7 dpf zebrafish larvae; for Lethal dose: up to 5 h treatment; for Highest concentration tested for anti-seizure activity: highest sub-lethal dose
HT22 cells = assay: t-BuOOH toxicity protection (MTS cell viability); format: cell-based, mouse; conditions: HT22, 50 μM t-BuOOH
Procedure: Cell viability was assessed by the ability of the viable cells to metabolize 3-(4,5-dimethylthiazol-2-yl)-5-(3-carboxymethoxyphenyl)-2(4-sulfophenyl)2-H-tetrazolium, inner salt (MTS), as described previously (Cory et al., 1991). The metabolism of tetrazolium salts is often used to measure cellular proliferation, but in the system used here, it has been previously shown to correlate well with cell viability as determined by trypan blue exclusion and colony-forming assays (Davis and Maher, 1994). Briefly, HT-22 cells were seeded onto 96-well plates at 5.0×10^3 cells per well in 75 μL of medium and maintained at 37° C. in 5% CO2 overnight prior to the initiation of experimental treatments. For glutamate toxicity testing, cells were subsequently treated with 25 μL of medium containing glutamate (monosodium glutamate, Sigma, 1 M stock concentration in media, to achieve a final concentration of 10 mM) plus inhibitors (stock in DMSO) and maintained at 37° C. in 5% CO2. For t-BuOOH toxicity testing, cells were subsequently treated with 25 μL of medium containing t-BuOOH (Sigma, 10 mM stock concentration, to achieve a final concentration of 50 μM) plus inhibitors (stock in DMSO) and maintained at 37° C. in 5% CO2 for 3 hours, after which the media was removed, cells washed gently with HBSS, the media replaced with standard culture media, and the cells returned to incubation at 37° C. in 5% CO2. For both glutamate and t-BuOOH treatments, 10 μl of MTS solution was added to each well 24 hrs after initial treatment, and the cells were maintained in growth medium for 2 h at 37° C. Absorbance at 490 nm was subsequently measured by a SpectraMax 190 plate reader (Molecular Devices). The growth medium without cells in the presence of MTS solution was used as solution background and untreated cells were considered the controls. Cell viability was calculated as a percentage compared with untreated controls. EC50 determinations were based on 12-point titrations using GraphPad Prism, and each experiment was repeated at least four times. Morphology of HT22 cells following treatments was determined by phase-contrast microscopy. Digital images of cells grown on cell culture plates were captured at 10× magnification.
In light of the findings that the protection against glutamate induced cell death provided by VK2, 2q, and 2j, are at least partially mediated by the attenuation of the increased production of endogenous ROS, the inventors also examined the effects of these compounds on tert-butylhydroperoxide (t-BuOOH) induced cell death. t-BuOOH is a short chain analog of the lipid hydroperoxides formed from peroxidation reactions during oxidative stress that is cytotoxic to cells (Lemasters and Nieminen, 1997). […] It is well documented that cells undergo rapid and extensive fragmentation in the early stages of cell death (Bossy-Wetzel et al., 2003; Frank et al., 2001; Breckenridge et al., 2008; Jagasia et al., 2005; Lee et al., 2004). Recent studies have shown that mitochondrial fragmentation is regulated by the translocation of dynamin-related protein 1 (Drp1) from the cytosol to the mitochondria, where it assembles to form spirals at division sites (Smirnova et al., 2001). Although the exact molecular mechanism is still not well studied, the activity of Drp1 is regulated by the phosphorylation and dephosphorylation of specific serine residues by protein kinases and phosphatases such as calcineurin and the PGAM5 (Wang et al., 2012; Chang et al., 2007). […]

Compound | Lethal dose (zebrafish larvae) [mM] | Highest concentration tested for anti-seizure activity (zebrafish larvae) [mM] | protection from t-BuOOH induced cell death (HT22 cells) | highest NOEC (zebrafish larvae; zebrafish larvae) [µM]
C#CCNC1=CC(=O)c2ccccc2C1=O [Compound 2h, 2-(prop-2-yn-1-ylamino)naphthalene-1,4-dione] | >0.02 | 0.02 |  | 
O=C1C=C(NCc2ccccc2)C(=O)c2ccccc21 [Compound 2j, 2-(benzylamino)naphthalene-1,4-dione] | 0.012 | 0.010 | capable of protecting HT22 cells from t-BuOOH | 
O=C1C=C(NCc2cccc(Cl)c2)C(=O)c2ccccc21 [Compound 2q, 2-((3-chlorobenzyl)amino)naphthalene-1,4-dione] | >0.02 | 0.02 | capable of protecting HT22 cells from t-BuOOH | 
CC1=CC(=O)c2ccccc2C1=O [VK3, menadione, reference compound] | 0.007 | 0.006 |  | 10
menaquinones [VK2, reference compound] |  |  | capable of protecting HT22 cells from t-BuOOH | 
